From US20090269365A1, “IMMUNOGENIC VACCINIA PEPTIDES AND METHODS OF USING SAME” (priority 2005, published 2009)

How the values were obtained:
Assay type in all cases: cell-based, human
[1] = system: vaccinia-specific CD8 CTL clones; details: read-out: EC50 in CTL assays
[2] = system: bulk vaccinia-specific CD8 CTL
CD4+ T-cells = details: humans, Example 2
[3] = system: bulk vaccinia-specific CD8 CTL; remark: listed apart in the source

Sequence: EEQELLLLY [F3 41-49]
- EC50 [1]: ~10 nM
- IFN-γ secretion by bulk CTL, in words [2]: again detectable

Sequence: KIQNVIIDECY [L1R 127-137]
- CD4+ T-cell reactivity, in words (CD4+ T-cells): reacts with CD4+ T-cells

Sequence: NPITKTTSDYQDSDVSQEVR [A33R 157-176]
- CD4+ T-cell reactivity, in words (CD4+ T-cells): containing the epitope

Sequence: TKTTSDYQDSDVSQ [A33R 160-173]
- CD4+ T-cell reactivity, in words (CD4+ T-cells): epitope region has been further narrowed down

Sequence: VWINNSWKF [D5R 349-357]
- IFN-γ ICC response relative to DMSO background, in words [3]: detection of IFN-γ-bright cells at a level above the background

Sequence: WLKIKRDYL [A50R 395-403]
- net ICC response (peptide minus DMSO) [3]: ~1.55%
- percentage of bulk CTL positive for IFN-γ by ICC [3]: 2.95%

Sequence: YEFRKVKSY [A3L 264-272]
- IFN-γ ICC response relative to DMSO background, in words [3]: positive
- IFN-γ secretion by bulk CTL, in words [2]: positive
